Where two headings read alike, the source gives them in different places. Where only a bound is given, the exact number is not on record here.

These results are taken from patent US6579900B2, “Anandamide amidase inhibitors as analgesic agents” (priority 1996, dated 2003).

Test [1] concerns the target T1, anandamide amidase (Rattus norvegicus, UniProt P97612).
T1 construct: Crude rat brain homogenate was obtained by decapitating female adult Sprague-Dawley rats, dissecting the desired tissue and homogenizing; from tissue; host or cells: crude brain homogenate of female adult Sprague-Dawley rats
T1 sequence (P97612 1-579): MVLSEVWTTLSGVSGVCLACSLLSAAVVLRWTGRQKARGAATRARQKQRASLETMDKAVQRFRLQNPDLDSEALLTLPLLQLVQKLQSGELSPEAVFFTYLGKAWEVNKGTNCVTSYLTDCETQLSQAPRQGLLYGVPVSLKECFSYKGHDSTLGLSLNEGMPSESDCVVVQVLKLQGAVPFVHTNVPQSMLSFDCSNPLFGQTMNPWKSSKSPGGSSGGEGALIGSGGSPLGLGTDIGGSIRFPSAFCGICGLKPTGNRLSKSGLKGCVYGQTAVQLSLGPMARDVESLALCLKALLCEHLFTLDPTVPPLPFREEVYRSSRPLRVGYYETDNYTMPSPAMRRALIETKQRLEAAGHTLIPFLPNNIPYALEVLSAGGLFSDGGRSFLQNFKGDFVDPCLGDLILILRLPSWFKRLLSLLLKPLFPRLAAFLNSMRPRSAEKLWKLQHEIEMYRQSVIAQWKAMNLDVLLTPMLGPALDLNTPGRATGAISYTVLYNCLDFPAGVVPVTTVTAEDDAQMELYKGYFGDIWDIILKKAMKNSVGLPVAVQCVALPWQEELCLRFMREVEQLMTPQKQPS
Nature of the test: Anandamide amidase assay in vitro, crude rat brain homogenate. Type of test: biochemical. The protocol:
The assay of the anandamide amidase in vitro was performed as described previously (Deutsch, D. G. and S. A. Chin, Biochem. Pharmacol. 46:791-796 (1993)). The indicated amount of each compound was preincubated in a buffer consisting of 300 μg of crude rat brain homogenate protein, 500 μg/ml fatty acid-free bovine serum albumin, in phosphate-buffered saline in a final volume of 1.0 ml, for 10 minutes at 37° C. Crude rat brain homogenate was obtained by decapitating female adult Sprague-Dawley rats, dissecting the desired tissue and homogenizing in five volumes of ice-cold TE (10 mM Tris-HCl, 1 mM EDTA, pH 7.6). Substrate (27.7 μM anandamide+0.2 μCi of 221 Ci/mmol [^3H]anandamide ([arachidonyl-5,6,8,9,11,12,14,15-^3H]ethanolamide)) (obtained from the National Institute on Drug Abuse) was then added and the samples incubated for 10 minutes. The reaction was quenched by the addition of chloroform:methanol (1:1) and enzyme activity was analyzed by TLC as described in Example 1.

Test [2] deals with T2, anandamide amidase (Mus musculus, UniProt O08914).
T2 construct: The assay of the anandamide amidase in intact neuroblastoma cells; endogenous in cells; host or cells: N18TG2 neuroblastoma cells
T2 sequence (O08914 1-579): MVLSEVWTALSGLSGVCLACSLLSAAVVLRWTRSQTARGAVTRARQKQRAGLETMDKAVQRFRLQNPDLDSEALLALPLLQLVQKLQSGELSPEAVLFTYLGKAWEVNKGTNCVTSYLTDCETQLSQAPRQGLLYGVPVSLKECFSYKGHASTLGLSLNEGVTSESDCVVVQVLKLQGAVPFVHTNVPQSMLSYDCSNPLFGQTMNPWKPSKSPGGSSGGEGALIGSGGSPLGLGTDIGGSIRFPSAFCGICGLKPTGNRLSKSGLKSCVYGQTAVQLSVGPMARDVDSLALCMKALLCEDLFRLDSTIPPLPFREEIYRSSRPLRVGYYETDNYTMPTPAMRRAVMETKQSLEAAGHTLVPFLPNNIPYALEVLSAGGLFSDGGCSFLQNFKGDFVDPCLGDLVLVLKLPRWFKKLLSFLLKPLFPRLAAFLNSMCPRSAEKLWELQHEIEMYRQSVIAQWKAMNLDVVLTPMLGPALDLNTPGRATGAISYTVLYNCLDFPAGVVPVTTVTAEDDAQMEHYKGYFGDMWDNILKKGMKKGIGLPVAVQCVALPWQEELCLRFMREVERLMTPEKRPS
Nature of the test: Anandamide amidase assay in intact neuroblastoma cells ([3H]anandamide levels). Format: cell-based.
Method: The experiments were performed with 4×10^6 neuroblastoma cells (N18TG2)/6-cm dish. Experimental cells were incubated in 2 ml of media, consisting of Ham's F-12/Dulbecco's modified Eagle's medium (Life Technologies, Inc.) with penicillin, streptomycin, and gentamicin plus 10% bovine calf serum (HyClone, Logan, Utah), plus the indicated concentration of inhibitor for 20 minutes. All cells were grown at 37° in a humidified atmosphere containing 5% CO2 in air. [^3H]Anandamide (0.2 μCi of 221 Ci/mmol of [^3H]anandamide) was added and the incubation continued for 1 hour. Control cells contained no inhibitor. At the end of the incubation, the cells were washed once with cell culture media and removed from the plates, after a brief incubation with 2 ml of 0.05% trypsin in 0.53 mM EDTA solution at 37° C. The amounts of [^3H]anandamide, [^3H]phospholipids, and [^3H]arachidonate in the cells and media were quantified by liquid scintillation counting of the silica scraped from the appropriate areas of the plate after quenching the reaction with chloroform methanol (1:1), extraction of the sample from the organic phase, and TLC analysis on channeled silica gel-coated plates, with a solvent system consisting of the organic layer of an ethyl acetate:hexane:acetic acid:water (100:50:20:100) mixture.

Test [3] concerns male MF1 mice. Nature of the test: Tail flick test of analgesia ("rat flick test"). The settings on record: mouse, in vivo.
Test [4] has as its target T3, CB1 receptor (Rattus norvegicus, UniProt P20272).
T3 construct: brain membranes were prepared from frozen rat brains; from tissue; host or cells: membranes from frozen rat brains
The settings on record: rat brain membranes, FIG. 3; read-out: Ki in competition with [3H]CP-55940 binding to CB1.
Method: The filters were treated with 0.1% sodium dodecyl sulfate prior to addition of scintillation mixture and counting in a liquid scintillation counter.

Where [5] appears, read: crude rat brain homogenate, 10 min preincubation at 37° C., read-out: IC50 for inhibition of anandamide amidase.

T3 sequence (P20272 whole entry): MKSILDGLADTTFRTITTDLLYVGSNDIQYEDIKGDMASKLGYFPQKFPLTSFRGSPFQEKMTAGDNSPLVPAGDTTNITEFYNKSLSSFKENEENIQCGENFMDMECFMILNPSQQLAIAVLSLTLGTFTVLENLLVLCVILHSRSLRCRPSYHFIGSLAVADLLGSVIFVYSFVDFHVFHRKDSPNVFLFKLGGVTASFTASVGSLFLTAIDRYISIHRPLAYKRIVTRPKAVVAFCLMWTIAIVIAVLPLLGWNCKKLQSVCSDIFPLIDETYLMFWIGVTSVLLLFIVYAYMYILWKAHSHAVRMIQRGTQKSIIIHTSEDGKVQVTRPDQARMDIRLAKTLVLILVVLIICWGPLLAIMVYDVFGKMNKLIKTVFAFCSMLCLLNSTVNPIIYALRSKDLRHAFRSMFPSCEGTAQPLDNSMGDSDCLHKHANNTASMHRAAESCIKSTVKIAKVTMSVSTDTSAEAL

Turning to `CCCCCCCCCCCCCCCCCCCCS(=O)(=O)F` [Arachidylsulfonyl fluoride, arachidylsulfonyl fluoride], the “concentration at which effective inhibitor of anandamide amidase” value in test [1] (crude rat brain homogenate) was “less than 100 nM”. Consider `CCCCCCCCCCCCS(=O)(=O)F` [laurylsulfonyl fluoride], for which the IC50 in test [1] (setting [5]) is under 10 nM. The same measure, in the same setting: as for `CCCCCCCCCCCCCCS(=O)(=O)F` [myristylsulfonyl fluoride], the figure is under 10 nM. As to `CCCCCCCCCCCCCCCCS(=O)(=O)F` [palmitylsulfonyl fluoride], the “increase of the level of undegraded anandamide” value in test [2] (10 nM inhibitor, intact neuroblastoma cells (N18TG2)) came to 55 fold. Moreover, the IC50 in test [1] was under 10 nM. In addition, the “analgesia (in words)” value in test [3] is listed as “induce analgesia”. Consider `O=S(=O)(F)Cc1ccccc1` [phenylmethylsulfonyl fluoride, reference compound], for which the “concentration required to achieve comparable levels of anandamide amidase inhibition” value in test [2] (comparable to over 50% of radioactivity in anandamide, N18TG2 cells) is listed as “greater than 10 micromolar”. Take `CCCCCCCCCCCCCCCCCCS(=O)(=O)F` [stearylsulfonyl fluoride]: the IC50 in test [1] (setting [5]) was under 10 nM. For the compound arachidonyl trifluoromethyl ketone, the Ki in test [4] was 1320 nM.
